Assay results reported in article PMC8402547, “In Vitro and In Vivo Analysis of Ochratoxin A-Derived Glucuronides and Mercapturic Acids as Biomarkers of Exposure” (Toxins, 2021).

Experiments:
[1] = 90-day rat study: 24 h urinary excretion of OTA and OTA-glucuronides, LC–MS/MS with and without β-glucuronidase hydrolysis; format: in vivo, male F344/N rats; conditions: for Urinary excretion, fraction of the administered dose / Urinary excretion: 5 days/week; for Urinary excretion, fraction of the administered dose: 24 h urine
Protocol: (§1) 90-day study: Male F344/N rats (6–7 weeks old) were purchased from Harlan-Winkelmann, Borchen, Germany. Animals were housed in groups of 5 in Macrolon type-4 cages and allowed free access to pelleted standard rat maintenance diet (SSNIFF, Soest, Germany) and tap water. After a week of acclimatization, rats (n = 5/dose) were exposed to OTA dissolved in corn oil by oral gavage at doses of 0, 21, 70 or 210 µg/kg bw for 2, 4 or 13 weeks (5 days per week). For urine collection, animals were transferred into metabolic cages (Tecniplast Metabolic Cage—Rats Over 300 g; Tecniplast, Italy) 48 h prior to necropsy and fasted for 20 h but allowed free access to tap water. Urine was collected for 24 h on ice, aliquoted and stored at −20 °C until further analysis.
(§2) Duplicate analysis of OTA in urine samples with and without enzymatic hydrolysis allowed for indirect measurement of glucuronides, whereby an increase in the concentration of OTA in the samples incubated with enzyme compared to those without enzymatic treatment reflected the hydrolyzed glucuronides. Aliquots of rat urine (125 µL) were mixed with 0.1 M sodium acetate (104 µL; pH = 5). For analysis of the concentration of OTA without enzymatic hydrolysis, an aliquot (30 µL) of this solution was removed and mixed with 7 µL acetonitrile. The remaining solution (199 µL) was incubated with β-glucuronidase (1.65 µL; <100,000 units/mL) at 37 °C for 1 h. Hydrolysis was terminated by addition of ice-cold acetonitrile (50 µL) and centrifugation (15 min., 4 °C, 20,000× g). To 98 µL supernatant, 2 µL isotopically labeled ^13C20-OTA in acetonitrile (14-day study: 5 µg/mL; 90-day study: 1 µg/mL) was added as an internal standard. For analysis, 10 µL of each sample were injected into the LC–MS system and analyzed using the method described below. A calibration curve was prepared from solutions of OTA and the isotopically labeled ^13C20-OTA internal standard in acetonitrile and subsequent dilution with urine of a control animal.
(§3) LC–MS/MS analyses were performed on an Agilent 1100 series LC coupled to an API 2000/Q-Trap mass spectrometer (Applied Biosystems/MDS Sciex, Concord, Canada). Samples were injected into the LC–MS/MS system through an Agilent 1100 series autosampler. Separations were carried out on a ReproSil-Pur C18 AQ column (2 mm × 150 mm, 5 µm; Dr. Maisch; Ammerbuch, Germany). Gradient elution of OTA-derived metabolites was carried out with water + 0.1% formic acid (solvent A) and acetonitrile (solvent B). Initially, solvent A was held isocratic for 5 min at 100%, followed by a linear gradient to 95% B in 5 min. These conditions were held for further 5 min. Within 1 min, the gradient decreased linearly to 0% B and remained at initial conditions until the end of analysis (30 min). A flow rate of 0.2 mL/min was used. For each run, 10 µL of the respective sample were injected by the autosampler.
(§4) The API 2000/Q-Trap mass spectrometer was operated with a Turbo Ion Spray source in negative ion mode with a voltage of −4000 V. Spectral data were recorded with N2 as the heater gas at 450 °C and as the collision gas (CAD = −2) in multiple reaction monitoring mode (MRM).

[2] = Direct LC–MS/MS analysis of OTA metabolites in urine of OTA-treated rats; format: in vivo, male F344/N rats; conditions: OTA up to 2 mg/kg bw, negative ionization mode
Protocol: Archived urine samples from previous repeated dose oral toxicity studies on OTA in male F344/N rats were used. The studies were performed according to national animal welfare regulations after authorization by the local authorities (Regierung von Unterfranken, AZ 621-2531.01-9/98 and AZ 54-2531.01-59/05).
(§5) 14-day study: Male F344 rats (170–190 g) were purchased from Charles-River Laboratories, Sulzfeld, Germany. Animals had free access to water and standard diet (Altromin) and were kept under standard conditions (12 h day/night cycle, temperature 21–23 °C, humidity 45–55%). Rats were transferred to metabolic cages (Tecniplast Metabolic Cage—Rats Over 300 g; Tecniplast, Italy) for collection of urine 3 days prior to dosing. Animals were administered OTA dissolved in corn oil by oral gavage at 0, 0.25, 0.5, 1.0 and 2.0 mg/kg bw for 2 weeks (5 days per week). Urine was collected every 12 h on day 1 of treatment and every 24 h thereafter on ice, aliquoted and stored at −20 °C until further analysis.
as §1
Urine samples were diluted with acetonitrile (2:1), vortexed and cleared via centrifugation (4 °C, 15 min., 2000× g) to precipitate proteins. Of the resulting supernatant, 10 µL were injected into the LC–MS system and analyzed using the method described below.
as §3, §4
In addition to MRM, constant neutral loss of 129 amu in the negative ion mode based on the characteristic fragmentation pattern of mercapturic acids was used to screen for N-acetyl-cysteine conjugates of OTA. Furthermore, constant neutral loss of 176 amu in positive ion mode based on the fragmentation pattern of glucuronic acid conjugates was used to screen for OTA glucuronides.

[3] = 14-day rat study: 24 h urinary excretion of OTA and OTA-glucuronides, LC–MS/MS with and without β-glucuronidase hydrolysis; format: in vivo, male F344/N rats; conditions: for Urinary excretion / Urinary excretion, fraction of the administered dose: 2 mg OTA/kg bw oral, 5 d/week; for Urinary excretion, fraction of the administered dose: 24 h urine
Protocol: as §5, §2, §3, §4

[4] = human urine samples; cited from earlier work
[5] = 4 weeks treatment, OTA 210 μg/kg bw per day oral, n = 1

C[C@@H]1Cc2c(Cl)cc(C(=O)N[C@@H](Cc3ccccc3)C(=O)O)c(O)c2C(=O)O1 [OTA, Ochratoxin A]
Urinary excretion, fraction of the administered dose ([1]; 2 weeks treatment, OTA 21 μg/kg bw per day oral): 1.9% | Urinary excretion ([1]; 2 weeks treatment, OTA 21 μg/kg bw per day oral, mean ± SD): 0.22 ± 0.03 nmol/24 h | Urinary excretion, fraction of the administered dose ([1]; 2 weeks treatment, OTA 70 μg/kg bw per day oral): 0.8% | Urinary excretion ([1]; 2 weeks treatment, OTA 70 μg/kg bw per day oral, mean ± SD): 0.32 ± 0.12 nmol/24 h | Urinary excretion, fraction of the administered dose ([1]; 2 weeks treatment, OTA 210 μg/kg bw per day oral): 1.2% | Urinary excretion ([1]; 2 weeks treatment, OTA 210 μg/kg bw per day oral, mean ± SD): 1.35 ± 0.36 nmol/24 h | Urinary excretion, fraction of the administered dose ([1]; 4 weeks treatment, OTA 70 μg/kg bw per day oral): 0.9% | Urinary excretion ([1]; 4 weeks treatment, OTA 70 μg/kg bw per day oral, mean ± SD): 0.51 ± 0.09 nmol/24 h | Urinary excretion, fraction of the administered dose [1, 5]: 4.6% | Urinary excretion [1, 5]: 5.86 nmol/24 h | Urinary excretion, fraction of the administered dose ([1]; 13 weeks treatment, OTA 21 μg/kg bw per day oral): 1.1% | Urinary excretion ([1]; 13 weeks treatment, OTA 21 μg/kg bw per day oral, mean ± SD): 0.18 ± 0.07 nmol/24 h | Urinary excretion, fraction of the administered dose ([1]; 13 weeks treatment, OTA 70 μg/kg bw per day oral): 1.9% | Urinary excretion ([1]; 13 weeks treatment, OTA 70 μg/kg bw per day oral, mean ± SD): 0.97 ± 0.36 nmol/24 h | Urinary excretion, fraction of the administered dose ([1]; 13 weeks treatment, OTA 210 μg/kg bw per day oral): 2.5% | Urinary excretion ([1]; 13 weeks treatment, OTA 210 μg/kg bw per day oral, mean ± SD): 3.88 ± 1.50 nmol/24 h | Fraction of the administered dose excreted in urine ([1]; range over 90-day study, OTA 21, 70 and 210 µg/kg (5 days/week)): 0.8 to 4.6% | Detection in urine of OTA-treated rats by direct LC–MS/MS (MRM) [2]: consistently found | Urinary excretion ([3]; animal 2, day 3 of treatment): 15.3 nmol/24 h | Urinary excretion, fraction of the administered dose ([3]; animal 2, day 3 of treatment): 1.8% | Urinary excretion ([3]; animal 2, day 5 of treatment): 40.3 nmol/24 h | Urinary excretion, fraction of the administered dose ([3]; animal 2, day 5 of treatment): 4.7% | Urinary excretion ([3]; animal 2, day 7 of treatment): 35.4 nmol/24 h | Urinary excretion, fraction of the administered dose ([3]; animal 2, day 7 of treatment): 4.1% | Urinary excretion ([3]; animal 2, day 9 of treatment): 32.9 nmol/24 h | Urinary excretion, fraction of the administered dose ([3]; animal 2, day 9 of treatment): 3.7% | Urinary excretion ([3]; animal 2, day 11 of treatment): 40.9 nmol/24 h | Urinary excretion, fraction of the administered dose ([3]; animal 2, day 11 of treatment): 4.6% | Urinary excretion ([3]; animal 2, day 13 of treatment): 21.0 nmol/24 h | Urinary excretion, fraction of the administered dose ([3]; animal 2, day 13 of treatment): 2.2% | Urinary excretion ([3]; animal 3, day 3 of treatment): 4.4 nmol/24 h | Urinary excretion, fraction of the administered dose ([3]; animal 3, day 3 of treatment): 0.5% | Urinary excretion ([3]; animal 3, day 5 of treatment): 30.9 nmol/24 h | Urinary excretion, fraction of the administered dose ([3]; animal 3, day 5 of treatment): 3.5% | Urinary excretion ([3]; animal 3, day 7 of treatment): 62.4 nmol/24 h | Urinary excretion, fraction of the administered dose ([3]; animal 3, day 7 of treatment): 6.9% | Urinary excretion ([3]; animal 3, day 9 of treatment): 17.8 nmol/24 h | Urinary excretion, fraction of the administered dose ([3]; animal 3, day 9 of treatment): 2.0% | Urinary excretion ([3]; animal 3, day 11 of treatment): 33.6 nmol/24 h | Urinary excretion, fraction of the administered dose ([3]; animal 3, day 11 of treatment): 3.7% | Urinary excretion ([3]; animal 3, day 13 of treatment): 48.1 nmol/24 h | Urinary excretion, fraction of the administered dose ([3]; animal 3, day 13 of treatment): 5.3% | 24 h urinary excretion, % of the daily administered dose ([3]; range over the course of the study, OTA 2 mg/kg bw for 2 weeks (5 days/week)): 0.5–6.9% | Concentration in human urine following enzymatic hydrolysis as compared to without hydrolysis [4]: up to 6 fold
